Measurements reported in publication PMC10610134, “Verubulin (Azixa) Analogues with Increased Saturation: Synthesis, SAR and Encapsulation in Biocompatible Nanocontainers Based on Ca^2+ or Mg^2+ Cross-Linked Alginate” (Pharmaceuticals, 2023).
Entries after “also recorded” stand apart in the source; their conditions may differ.

Tests used:
[1] = system: microtubules in carcinoma A549 cells; test: Immunofluorescent microscopy of microtubules; type: cell-based, human
Description: Since verubulin is known to stimulate microtubule disassociation, we performed an immunofluorescent microscopy study to determine the response of microtubule dynamics in carcinoma A549 cells to the treatment with representative compounds 2b,c,e. […] Aberrant cell morphology—contraction and rounding (Figure 2A,B) or contraction and elongation (Figure 2C)—was also observed.
A549 cells were seeded on coverslips (treated with poly-l-lysine at a concentration of 33 mg/L for an hour). Compounds were added up to the corresponding concentration after 24 h attachment and growth of the cells. Then, cells were incubated 24 h.
The cells were fixed with methanol (precooled in liquid nitrogen for 20 min), no additional permeabilization was performed. To prevent non-specific binding, cells were incubated with 4% BSA in PBS for one hour. Then, a solution of mouse monoclonal antibodies against alpha-tubulin cross-linked with Alexa 488 fluoroform (Thermo Fisher Scientific, Waltham, MA, USA, 32-2588) at a concentration of 5 μg/mL in 1% BSA solution in PBS was added to the cells, and the slides were incubated at +5 °C in a water chamber for 24 h. After the end of the incubation time, the cells were washed several times with PBS buffer solution and fixed on a glass slide with Moviol. Next day, cells were imaged with a ZEISS LSM 900 (ZEISS Microscopy, GmbH, Germany) and images processed with ImageJ.

[2] = system: human breast cancer cell line MCF7′; test: MTT cytotoxicity assay, MCF7′; type: cell-based; conditions: MCF7, 64 h treatment, MTT, read-out: IC50, nM MCF7′
Text: (§1) The obtained series of verubulin analogues 2a–r (which also included three by-products isolated in the reactions according to Scheme 2) were initially evaluated for cytotoxicity against commonly used human breast cancer cell line MCF7′ (fast-growth subclone), human lung epithelial carcinoma cell line A549 and etiologically non-cancer immortalized lung fibroblast cell line VA13 (WI38 subline 2RA). Cytotoxicity against immortalized human embryonic kidney cell line HEK293T, characterized by a high growth rate, was also studied regarding cytotoxicity against non-cancerous fast-growth cells. A standard MTT assay was performed; verubulin (1) served as a positive reference. The data obtained are presented in Table 1 (for dose–response curves, see Supplementary Materials).
(§2) Human breast cancer cell line MCF7′ and human lung adenocarcinoma cell line A549 were kindly provided by Dr. S. Dmitriev (Lomonosov Moscow State University), immortalized human fibroblast cell line VA13 (WI38 subline 2RA) was kindly provided by Dr. M. Rubtsova (Lomonosov Moscow State University), human embryonic kidney HEK293T cell line was kindly provided by Dr. E. Knyazhanskaya (Lomonosov Moscow State University). MCF7′, VA13, A549 and HEK293T cell lines were maintained in DMEM/F-12 (Thermo Fisher Scientific, Waltham, MA, USA) culture medium containing 10% fetal bovine serum (Thermo Fisher Scientific, Waltham, MA, USA) and 50 μg/mL penicillin and 0.05 mg/mL streptomycin at 37 °C (Thermo Fisher Scientific, Waltham, MA, USA) in 5% CO2. Cells were maintained at 37 °C in a humidified MCO-18AC incubator (Sanyo, Tokyo, Japan) supplied with 5% CO2. Cell cultures were tested for the absence of mycoplasma and validated by STR.
(§3) The cytotoxicity of the substances was tested using the 3-(4,5-dimethylthiazol-2-yl)2,5-diphenyl tetrazolium bromide (MTT) assay with some modifications. A total of 2500 cells per well for the MCF7′, HEK293T, A549 cell lines or 4000 cells per well for the VA-13 cell line were plated out in 135 μL of DMEM-F12 media (Gibco, Thermo Fisher Scientific, Waltham, MA, USA) in a 96-well plate and incubated in the 5% CO2 incubator for the first 20 h without treatment. Then, 15.8 μL of media–DMSO solutions of tested substances (final DMSO concentrations in the media were 0.5% or less) was added to the cells (triplicate each) and cells were treated for 64 h with 0.023 mg/L–50 mg/L (eight dilutions) of compounds 2f,n,o,r; 1.14 μg/L–2.5 mg/L (eight dilutions) of compounds 2a,b,d,g,h,k,l,p,q; 57.2 ng/L–125 μg/L (eight dilutions) of compounds 2e,i,j; 22.9 ng/L–50 μg/L (eight dilutions) of compounds 1,2c,m. Doxorubicin was used as a control substance. Then, the MTT reagent (Paneco LLC, Moscow, Russia) was added to cells up to a final concentration of 0.5 g/L (10 × stock solution in PBS was used) and incubated for 2 h at 37 °C in the incubator, under an atmosphere of 5% CO2. Then, the MTT solution was discarded, and 140 μL of DMSO (PharmaMed LLC, Moscow, Russia) was added. The plates were swayed on a shaker (120 rpm) to dissolve the formazan. The absorbance was measured using a microplate reader (VICTOR X5 Light Plate Reader, PerkinElmer, Waltham, MA, USA) at a wavelength of 555 nm (in order to measure formazan concentration). The results were used to construct dose–response graphs and to estimate IC50 values (IC50 is the concentration resulting in half of the maximal cytotoxic effect) with GraphPad Prism V, GraphPadSoftware, Inc., San Diego, CA, USA.

[3] = system: MCF7′, A549, VA13, HEK293T cell lines; test: MTT cytotoxicity, SAR statements over the cell line panel; type: cell-based, human; conditions: for reduction of cytotoxicity on removal of para-methoxy substituent: 2a vs. 2c, 2g vs. 2i; for cytotoxicity, in words: MTT, 64 h
Text: as §1, §3

[4] = system: immortalized human embryonic kidney cell line HEK293T; test: MTT cytotoxicity assay, HEK293T; type: cell-based; conditions: HEK-293T, 64 h treatment, MTT, read-out: IC50, nM HEK293T
Text: as §1, §2, §3

[5] = system: immortalized lung fibroblast cell line VA13 (WI38 subline 2RA); test: MTT cytotoxicity assay, VA13; type: cell-based; conditions: Homo sapiens, VA-13; 64 h treatment, MTT; read-out: IC50, nM VA13
Text: as §1, §2, §3

[6] = system: human lung epithelial carcinoma cell line A549; test: MTT cytotoxicity assay, A549; type: cell-based; conditions: A549, 64 h treatment, MTT, read-out: IC50, nM A549
Text: as §1, §2, §3

SMILES | effect on microtubules (MTs) ([1]; 0.03 μM, A549, positive control) | effect on microtubules (MTs) ([1]; 100 μM (very high concentration), 24 h, A549) | IC50 [2] [nM] | reduction of cytotoxicity on removal of para-methoxy substituent [3] | IC50 [4] [nM] | IC50 [5] [nM] | IC50 [6] [nM] | melting point [°C] | effect on microtubules (MTs) ([1]; 10 μM, 24 h, A549) | effect on microtubules ([1]; 5–10 μM, 24 h, A549) | cytotoxicity, in words [3] | selectivity towards tumor cells ([3]; pair A549/VA13) | reduction of cytotoxicity relative to 2c ([3]; ring B enlarged to seven-membered) | activity relative to 2k ([3]; conformational restriction of 2k)
COc1ccc(/C=C\c2cc(OC)c(OC)c(OC)c2)cc1O [CA-4, combretastatin A-4, reference compound] | full depolymerization of MTs |  |  |  |  |  |  |  |  |  |  |  |  | 
Cc1nc2c(c(N(C)c3ccccc3)n1)CCCC2 [Compound 2a, N,2-Dimethyl-N-phenyl-5,6,7,8-tetrahydroquinazolin-4-amine] |  | intact MTs; also recorded: no effect on the microtubule cytoskeleton | 1840 ± 810 | 2–3 orders of magnitude | 1750 ± 230 | 1400 ± 180 | 2200 ± 260 | 84 to 85 |  |  |  |  |  | 
Cc1ccc(N(C)c2nc(C)nc3c2CCCC3)cc1 [Compound 2b, N,2-Dimethyl-N-(4-methylphenyl)-5,6,7,8-tetrahydroquinazolin-4-amine] |  |  | 97 ± 7 |  | 89 ± 3 | 62 ± 8 | 110 ± 8 | 91 to 92 | depolymerization of MTs | pronounced or complete disruption of microtubules |  |  |  | 
Cc1nc2c(c(N3CCCc4ccccc43)n1)CCCC2 [Compound 2d, 4-(3,4-Dihydroquinolin-1(2H)-yl)-2-methyl-5,6,7,8-tetrahydroquinazoline] |  |  | 9100 ± 2200 |  | 7300 ± 1200 | 3000 ± 700 | 12600 | 118 to 119 |  |  |  |  |  | 
Cc1nc2c(c(N3CCCc4ccc([N+](=O)[O-])cc43)n1)CCCC2 [Compound 2f, 2-Methyl-4-(7-nitro-3,4-dihydroquinolin-1(2H)-yl)-5,6,7,8-tetrahydroquinazoline] |  |  | > 50000 |  | > 50000 | > 50000 | > 50000 | 184 to 185 |  |  | inactive |  |  | 
CN(c1ccccc1)c1nc(N)nc2c1CCCC2 [Compound 2g, N^4-Methyl-N^4-phenyl-5,6,7,8-tetrahydroquinazolinyl-2,4-diamine] |  |  | 28600 | 2–3 orders of magnitude | 26300 | 26900 | 36400 | 128 to 129 |  |  |  |  |  | 
Cc1ccc(N(C)c2nc(N)nc3c2CCCC3)cc1 [Compound 2h, N^4-Methyl-N^4-(4-methylphenyl)-5,6,7,8-tetrahydroquinazolinyl-2,4-diamine] |  |  | 210 ± 15 |  | 170 ± 18 | 150 ± 14 | 310 ± 23 | 135 to 136 |  |  |  |  |  | 
COc1ccc(N(C)c2nc(C)nc3c2CCCCC3)cc1 [Compound 2k, N-(4-Methoxyphenyl)-N,2-dimethyl-6,7,8,9-tetrahydro-5H-cyclohepta[d]pyrimidin-4-amine] |  |  | 53 ± 7 |  | 39 ± 6 | 22 ± 6 | 79 ± 10 | 92 to 93 |  |  |  | no selectivity | more than 10 times | 
COc1ccc2c(c1)CCCN2c1nc(C)nc2c1CCCCC2 [Compound 2l, 4-(6-Methoxy-3,4-dihydroquinolin-1(2H)-yl)-2-methyl-6,7,8,9-tetrahydro-5H-cyclohepta[d]pyrimidine] |  |  | 360 ± 70 |  | 450 ± 100 | 260 ± 80 | 790 ± 19 | 122 to 123 |  |  |  |  |  | seven to twelve times less active
COc1ccc(N(C)c2nc3c(c(N(C)c4ccc(OC)cc4)n2)CCCC3)cc1 [Compound 2n, N,N′-bis(4-methoxyphenyl)-N,N′-dimethyl-5,6,7,8-tetrahydroquinazolin-2,4-diamine] |  |  | 2500 ± 140 |  | 1720 ± 68 | 2290 ± 160 | 3270 ± 290 |  |  |  | moderately cytotoxic |  |  | 
COc1ccc2c(c1)CCCN2c1nc(O)nc2c1CCCC2 [Compound 2o, 2-Hydroxy-4-(6-methoxy-3,4-dihydroquinolin-1(2H)-yl)-5,6,7,8-tetrahydroquinazoline] |  |  | > 50000 |  | > 50000 | > 50000 | > 50000 |  |  |  | complete loss of cytotoxicity |  |  | 
COc1ccc2c(c1)CCCN2c1nc2c(c(N3CCCc4cc(OC)ccc43)n1)CCCC2 [Compound 2p, 2,4-Bis(6-methoxy-3,4-dihydroquinolin-1(2H)-yl)-5,6,7,8-tetrahydroquinazoline] |  |  | 660 ± 150 |  | 510 ± 33 | 290 ± 74 | 640 ± 76 |  |  |  | moderately cytotoxic |  |  | 
COc1ccc2c(c1)CCCN2c1nc(OC(C)C)nc2c1CCCC2 [Compound 2q, 2-Isopropoxy-4-(6-methoxy-3,4-dihydroquinolin-1(2H)-yl)-5,6,7,8-tetrahydroquinazoline] |  |  | 310 ± 22 |  | 250 ± 11 | 160 ± 20 | 360 ± 34 |  |  |  | largely restored |  |  | 
COc1ccc2c(c1)CCCN2c1nc2c(c(OC(C)C)n1)CCCC2 [Compound 2r, 4-Isopropoxy-2-(6-methoxy-3,4-dihydroquinolin-1(2H)-yl)-5,6,7,8-tetrahydroquinazoline] |  |  | 24200 |  | 53500 | 118000 | 23800 |  |  |  | moderately cytotoxic |  |  | 
